According to patent US11958861B2, “Spirocyclic lactams as JAK2 V617F inhibitors” (Incyte Corporation, priority 2021, dated 2024):
Where a name gives a salt, the structure may show the parent alone.

Key:
[1] = molecular target: T1, pseudo-kinase domain (JH2, amino-acids 536-812) of human V617F mutant JAK2 (Homo sapiens, UniProt O60674, F794H/V617F/W659A/W777A); assay: JAK2 LanthaScreen JH2-V617F Binding Assay; details: 1 hour at 25° C.
T1 construct: pseudo-kinase domain (JH2, amino-acids 536-812 with 3 surface mutations W659A, W777A, F794H); purchased BPS Bioscience 79498; host or cells: baculovirus expression system
How it was run: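 TR-FRET tracer displacement: 0.26 nM protein, 50 nM tracer, 0.25 nM SA-Tb, 50 mM Tris pH 7.5, 10 mM MgCl2, 5 mM DTT; 1 h, 25° C. NSB = 2 mM ATP. IC50, 4-parameter curve.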

[2] = molecular target: T2, pseudo-kinase domain (JH2, amino-acids 536-812) of human Wild Type JAK2 (Homo sapiens, UniProt O60674, F794H/W659A/W777A); assay: JAK2 LanthaScreen JH2-WT Binding Assay; details: 1 hour at 25° C.
T2 construct: pseudo-kinase domain (JH2, amino-acids 536-812 with 3 surface mutations W659A, W777A, F794H); purchased BPS Bioscience 79463; host or cells: baculovirus expression system
How it was run: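 IC50 values derive from four-parameter fits of LanthaScreen signal, measuring displacement of 50 nM fluorescent tracer from 0.145 nM biotinylated, baculovirus-expressed JH2 (536-812) detected by 0.25 nM streptavidin-Tb. Incubation lasts 1 hour at 25° C, pH 7.5.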

[3] = molecular target: T3, catalytic domain (JH1, amino acids 826-1132) of human JAK2 (Homo sapiens, UniProt O60674); assay: JAK2 LanthaScreen JH1 Binding Assay; details: 2 hours at 25° C.
T3 construct: catalytic domain (JH1, amino acids 826-1132) of human JAK2; purchased Carna Biosciences 08-445-20N; host or cells: baculovirus expression system
How it was run: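 Reaction held 1.5 nM biotinylated FLAG-JAK2 JH1, 50 nM tracer and 0.5 nM streptavidin-Tb in pH 7.5 Tris buffer; 2 mM ATP defined nonspecific binding.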

[4] = molecular target: T4, catalytic domain (JH1, amino acids 808-1132) of human JAK2 (Homo sapiens, UniProt O60674); assay: JAK2 HTRF Enzyme Activity Assay; assay type: biochemical; details: ATP 30 μM, read-out: ENZ 30UMATP
T4 construct: catalytic domain (JH1, amino acids 808-1132) of human JAK2; His (N); purchased BPS Bioscience 40450; host or cells: baculovirus expression system
How it was run: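 IC50 values come from a four-parameter fit of HTRF signal (Eu-PY20 antibody/streptavidin-APC, EDTA-quenched). Reaction: 0.015 nM N-His JAK2 catalytic domain (baculovirus), 500 nM biotin-peptide, 30 μM or 1 mM ATP, Tris pH 7.5 buffer, 60 min, 25° C.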

T4 sequence (O60674 808-1132): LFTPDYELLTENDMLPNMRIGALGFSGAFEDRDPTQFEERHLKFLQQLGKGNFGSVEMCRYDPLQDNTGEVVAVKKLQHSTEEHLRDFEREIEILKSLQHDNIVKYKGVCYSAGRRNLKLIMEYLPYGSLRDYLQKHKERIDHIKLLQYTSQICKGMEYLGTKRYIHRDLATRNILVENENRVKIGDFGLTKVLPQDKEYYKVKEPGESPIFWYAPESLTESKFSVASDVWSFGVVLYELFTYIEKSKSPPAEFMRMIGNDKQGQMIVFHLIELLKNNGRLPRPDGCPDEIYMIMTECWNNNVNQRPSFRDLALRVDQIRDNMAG
T2 sequence (O60674 536-812 W659A/W777A/F794H): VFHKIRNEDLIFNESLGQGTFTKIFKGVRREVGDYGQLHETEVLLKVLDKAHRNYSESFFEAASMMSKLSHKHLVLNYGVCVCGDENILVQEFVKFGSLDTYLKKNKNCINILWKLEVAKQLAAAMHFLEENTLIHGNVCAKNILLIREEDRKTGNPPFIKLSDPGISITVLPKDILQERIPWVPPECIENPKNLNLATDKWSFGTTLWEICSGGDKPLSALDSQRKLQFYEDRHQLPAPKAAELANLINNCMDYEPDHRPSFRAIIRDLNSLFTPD
T1 sequence (O60674 536-812 V617F/W659A/W777A/F794H): as the sequence (O60674 536-812 W659A/W777A/F794H) above, with V82F counted along it
T3 sequence (O60674 826-1132): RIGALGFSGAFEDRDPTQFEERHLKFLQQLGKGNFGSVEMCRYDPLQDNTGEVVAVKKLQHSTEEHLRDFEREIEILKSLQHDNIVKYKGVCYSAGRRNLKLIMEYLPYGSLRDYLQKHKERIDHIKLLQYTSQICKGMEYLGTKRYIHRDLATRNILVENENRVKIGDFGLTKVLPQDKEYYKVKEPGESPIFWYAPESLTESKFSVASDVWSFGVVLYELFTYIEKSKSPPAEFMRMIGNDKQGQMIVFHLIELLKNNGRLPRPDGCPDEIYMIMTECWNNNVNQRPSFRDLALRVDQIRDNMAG

Compound	IC50 [1]	IC50 [2]	IC50 [3]	IC50 [4]
CCS(=O)(=O)N1CC2(C1)CC1(C2)C(=O)N(C)c2cnc3[nH]c(-c4cnn5c4CCC5)c(-c4ccc5c(cnn5C)c4)c3c21 [Example 94, 2″-(5,6-Dihydro-4H-pyrrolo[l,2-b]pyrazol-3-yl)-1-(ethylsulfonyl)-6″-methyl-1″-(1-methyl-1H-indazol-5-yl)-3″,6″-dihydro-7″-dispiro[azetidine-3,1′-cyclobutane-3′,8″-dipyrrolo[2,3-b:3′,2′-d]pyridin]-7″-one, trifluoroacetate salt]	≤ 100 nM	≤ 100 nM	> 2500 nM	> 2500 nM
O=C(O)C(F)(F)F.[2H]C([2H])([2H])N1C(=O)C2(CC3(CN(S(=O)(=O)CC)C3)C2)c2c1cnc1[nH]c(-c3cnn(CC)c3)c(-c3ccc(OC)cc3)c21 [Example 95, 2″-(1-Ethyl-1H-pyrazol-4-yl)-1-(ethylsulfonyl)-1″-(4-methoxyphenyl)-6″-(methyl-d3)-3″,6″-dihydro-7″H-dispiro[azetidine-3,1′-cyclobutane-3′,8″-dipyrrolo[2,3-b:3′,2′-d]pyridin]-7″-one, trifluoroacetate salt]	≤ 100 nM	≤ 100 nM	500 to 1250 nM	500 to 1250 nM
O=C(O)C(F)(F)F.[2H]C([2H])([2H])n1ncc2cc(-c3c(-c4cnn(CC(C)(C)OC)c4)[nH]c4ncc5c(c34)C3(CC4(CN(S(=O)(=O)CC)C4)C3)C(=O)N5C)ccc21 [Example 96, 1-(Ethylsulfonyl)-2″-(1-(2-methoxy-2-methylpropyl)-1H-pyrazol-4-yl)-6″-methyl-1″-(1-(methyl-d3)-1H-indazol-5-yl)-3″,6″-dihydro-7″H-dispiro[azetidine-3,1′-cyclobutane-3′,8″-dipyrrolo[2,3-b:3′,2′-d]pyridin]-7″-one, trifluoroacetate salt]	≤ 100 nM	≤ 100 nM	> 2500 nM	> 2500 nM
CCS(=O)(=O)N1CC2(C1)CC1(C2)C(=O)N(C)c2cnc3[nH]c(-c4cnn(CC5CCOCC5)c4)c(-c4ccc5c(cnn5C)c4)c3c21 [Example 97, 1-(Ethylsulfonyl)-6″-methyl-1″-(1-methyl-1H-indazol-5-yl)-2″-(1-((tetrahydro-2H-pyran-4-yl)methyl)-1H-pyrazol-4-yl)-3″,6″-dihydro-7″H-dispiro[azetidine-3,1′-cyclobutane-3′,8″-dipyrrolo[2,3-b:3′,2′-d]pyridin]-7″-one, trifluoroacetate salt]	≤ 100 nM	≤ 100 nM	1250 to 2500 nM	1250 to 2500 nM
